The record followed here is patent US20240335404A1, “SUBSTITUTED ESTERS CONTAINING POLYOLS AND SACCHARIDES FOR TREATING HEPATOTOXICITY AND FATTY LIVER DISEASES” (SINEW PHARMA INC., priority 2015, published 2024).

The test system of the test is fatty liver. The experiment in a line: High fat diet-induced fatty liver in B6 mice. It is filed as in vivo. Conditions: HFD mice; for GSH / Gpx / Grd / SOD: liver; for ALT / AST / TC in liver / TG in liver: administration period of 4 weeks; for liver TG / liver TC: 4 or 8 weeks; for ALT and AST values: compounds administered separately; for liver tissue sections, H&E: treated for 4 weeks, FIG. 5. As for the experimental part: More than four mice were used in each group of the pre-test, while more than twelve mice were used in each group of the confirmatory test. […] The animal test was carried out according to the guideline for animal experiment of National Health Research Institutes. […] The weight of mice was recorded once a week. The tested animals were grouped randomly into Blank, High Fat Diet control (HFD), Positive Control (PS), and Test group. The animals of Blank were fed with normal feed. The animals of HFD were fed with high fat feed. […] The animals of Test group were fed with high fat feed, and additionally fed with test compounds by a tube. The animals of Blank were fed casually with normal feed for 12 weeks, while the animals of HFD, PS, and Test group were fed casually with high fat feed for 12 weeks. After 8 weeks of feeding, the animals of Blank and HFD were fed with deionized water by a tube once a day; the animals of PS were fed with silymarin by a tube once a day; and the animals of Test Group were fed with test compounds by a tube once a day for a duration of 4 or 8 weeks. Before testing and in the eighth, twelfth, and sixteenth week after testing, blood was collected from the cheek or the heart. At the end of testing, all mice were weighted and then sacrificed, and blood was collected from the cheek or the heart simultaneously. The blood specimens of mice rested at room temperature for one hour to clot, and then the serum was separated by centrifugation in a refrigeration centrifuge at 15,700×g at 4° C. for 5 minutes. Afterwards, biochemical indices of liver function, including aspartate transaminase (AST), alanine aminotransferase (ALT), triglyceride (TG), total cholesterol (TCHO/TC), low-density lipoprotein cholesterol (LDL-C), and high-density lipoprotein cholesterol (HDL-C), were detected by the automatic blood biochemistry analyzer. In addition, abdominal fat and liver specimens were taken from the abdomens of sacrificed mice and weighted to compare the weight of fat and liver and obtain the ratio of liver weight to body weight. […] The cut sections proceeded with H&E staining for histopathological observation. Moreover, the rest of the liver was frozen for preservation and detection of the contents of triglyceride and total cholesterol in the liver. Furthermore, the liver function of animals of each group were analyzed by Galactose Single Point Method, which was recognized and recommended for quantification of remaining liver function in clinical use by U.S. FDA and Ministry of Health and Welfare, Taiwan. […] One hour after the administration, about 0.5 ml of whole blood was taken by using a filter paper to evaluate liver function of mice. The higher the value of GSP was, the worse the remaining liver function would be. (FDA: “Guidance for Industry: Pharmacokinetics in Patients with Impaired. Hepatic Function-Study Design, Data Analysis and Impact on Dosing and. Labeling. 2003. At the end of the test, all mice were sacrificed. […] Afterwards, xylene was replaced with hot paraffin solution. At last, the tissue was embedded with paraffin solution. The finished paraffin specimen was cut into […] paraffin sections by the microtome. The sections were pasted on clean slides, dried at 37° C., and then stained by H&E staining. In order to observe the changes of lesion, fat accumulation, necrosis, or fibrosis in liver cells when there was an ongoing liver damage, liver tissues were H&E stained to evaluate the degree of liver fat accumulation. All the histopathological sections were cut from the same position on the largest right lobe of liver for eliminating bias in subjective observation, and then subject to pathological staining. As for the assessment of semi-quantitative analysis in pathology, it had to be confirmed by a physician or a veterinary pathologist who conducted a double-blind analysis to score (NAS score) and compare all the sections without knowing the test design. […]

Setting [1] is: 2.5 mg/kg, test period of 4 weeks.
Where [2] appears, read: 1.5 mg/kg, test period of 4 weeks.

Structures are written as SMILES.

As for `O=c1c(-c2ccc(O)cc2)coc2c([C@@H]3O[C@H](CO)[C@@H](O)[C@H](O)[C@H]3O)c(O)ccc12` [Puerarin], the “liver TG” value was “reduce TG in liver significantly”; the “ALT and AST values” is “reduce ALT and AST values significantly”. Also, under setting [1], the GSH is recorded as 1498.1 ± 150.0 U/L, the Gpx was found to be 3581.7 ± 1056.7 U/L, the Grd is 99.0 ± 17.2 U/L and the SOD was 434.5 ± 59.8 U/L. For the same compound, for the setting “2.5 mg/kg”, the Abdominal fat weight is reported as 2.8 ± 0.3 g, the “Increase of body weight” value is 21.7 ± 3.1 g, the Liver weight is given as 1.4 ± 0.2 g and the ALT is listed as 34.4 ± 14.7 U/L. Under “2.5 mg/kg”, the AST was 66.9 ± 8.5 U/L, the TC in liver stood at 6.7 ± 2.7 mg/g liver and the TG in liver is 89.4 ± 49.1 mg/g liver. Further, the “liver antioxidant activity” value (4 weeks) is reported as “improve antioxidant activity significantly”.
For `COc1ccc([C@@H]2CC(=O)c3c(O)cc(O)cc3O2)cc1O` [Hesperitin], the “liver TC” value was “reduce TC in liver significantly”; the “liver TG” value was “reduce TG in liver significantly”; the “ALT and AST values” was “reduce ALT and AST values significantly”. Under setting [1], this compound had a GSH of 1742.6 ± 241.5 U/L, a Gpx of 3133.3 ± 376.9 U/L, a Grd of 102.5 ± 28.3 U/L and an SOD of 408.3 ± 66.7 U/L. Besides, for the setting “2.5 mg/kg”, the Abdominal fat weight is recorded as 3.0 ± 0.5 g, the “Increase of body weight” value is 14.5 ± 8.3 g, the Liver weight stood at 1.5 ± 0.1 g and the ALT came to 36.8 ± 22.1 U/L. Under “2.5 mg/kg”, this compound yielded an AST of 72.4 ± 11.2 U/L, a TC in liver of 3.7 ± 0.7 mg/g liver and a TG in liver of 67.8 ± 16.6 mg/g liver. For the same compound, where the note is “4 weeks”, the “liver antioxidant activity” value is given as “improve antioxidant activity significantly”.
For the compound `CC1CCC(C(C)C)C(O)C1` (centres unmarked) [Menthol], the “weight of abdominal fat” value was “reduce the weight of abdominal fat in animals significantly”; the “liver TC” value is reported as “reduce TC in liver significantly”; the “liver TG” value is recorded as “reduce TG in liver significantly”; the “ALT and AST values” was “reduce ALT and AST values significantly”. In addition, the “liver tissue sections, H&E” value is “large vesicular fat droplets within liver cells in liver tissue section were significantly reduced”. Under setting [2], this compound gave a GSH of 1432.7 ± 104.0 U/L, a Gpx of 2921.7 ± 640.2 U/L, a Grd of 95.2 ± 16.2 U/L and an SOD of 427.9 ± 41.9 U/L. Further, for the setting “1.5 mg/kg”, the Abdominal fat weight was 2.3 ± 0.6 g, the “Increase of body weight” value was found to be 19.6 ± 5.0 g, the Liver weight was 1.6 ± 0.2 g and the ALT was 41.5 ± 13.7 U/L. For the setting “1.5 mg/kg”, this compound yielded an AST of 129.9 ± 37.1 U/L, a TC in liver of 4.4 ± 3.5 mg/g liver and a TG in liver of 87.3 ± 72.3 mg/g liver.
Consider `O=C1C[C@@H](c2ccc(O)c(O)c2)Oc2cc(O)cc(O)c21` [Eriodictyol], for which the “liver TC” value is given as “reduce TC in liver significantly”; the “liver TG” value is “reduce TG in liver significantly”; the “ALT and AST values” is “reduce ALT and AST values significantly”; the “liver tissue sections, H&E” value is listed as “large vesicular fat droplets within liver cells in liver tissue section were significantly reduced”. Under setting [1], this compound returned a GSH of 1302.0 ± 241.1 U/L, a Gpx of 3083.3 ± 378.9 U/L, a Grd of 86.9 ± 15.7 U/L and an SOD of 385.9 ± 34.0 U/L. Also, the NAS under setting [1] stood at 1.5 ± 0.8 mg/g liver. For the same compound, where the note is “2.5 mg/kg”, the Abdominal fat weight turned out to be 2.7 ± 0.6 g, the “Increase of body weight” value is 8.3 ± 6.7 g, the Liver weight was determined as 1.3 ± 0.1 g and the ALT came to 33.7 ± 18.5 U/L. Also, under “2.5 mg/kg”, the AST turned out to be 100.9 ± 42.0 U/L, the TC in liver came out at 3.8 ± 1.1 mg/g liver and the TG in liver is given as 43.1 ± 13.1 mg/g liver. For the setting “5.0 mg/kg”, this compound came in with an ALT of 41.4 ± 6.3 U/L, an AST of 161.4 ± 42.3 U/L, a TC in liver of 3.0 ± 0.9 mg/g liver and a TG in liver of 54.2 ± 15.0 mg/g liver. Besides, where the note is “4-week treatment, p<0.005”, the “reduction in liver TG content” value is “about 67%”. Also, where the note is “4 weeks”, the “liver antioxidant activity” value was “improve antioxidant activity significantly” and the “liver damage, NAS” value was “reduce liver damage significantly”.
For the compound `O=C1NS(=O)(=O)c2ccccc21` [Saccharin], the “liver TC” value is reported as “reduce TC in liver significantly”; the “ALT and AST values” is “reduce ALT and AST values significantly”. Besides, under “1.5 mg/kg”, the Abdominal fat weight was determined as 2.3 ± 0.5 g, the “Increase of body weight” value is recorded as 27.7 ± 12.7 g, the Liver weight came to 1.5 ± 0.1 g and the ALT is reported as 50.7 ± 29.7 U/L. For the setting “1.5 mg/kg”, this compound registered an AST of 170.4 ± 28.6 U/L, a TC in liver of 2.8 ± 1.5 mg/g liver and a TG in liver of 84.0 ± 41.4 mg/g liver. The “reduction in liver TC content” value (4-week treatment, p<0.005) is listed as “about 56%”.
Under setting [1], `O=C(CCc1ccc(O)cc1)c1c(O)cc(O)cc1O[C@@H]1O[C@H](CO)[C@@H](O)[C@H](O)[C@H]1O` [Phloridzin] came in with a GSH of 1387.7 ± 168.2 U/L, a Gpx of 3234.0 ± 505.1 U/L, a Grd of 82.2 ± 33.6 U/L and an SOD of 411.5 ± 87.5 U/L. Where the note is “2.5 mg/kg”, the Abdominal fat weight amounted to 2.3 ± 0.6 g, the “Increase of body weight” value amounted to 13.7 ± 10.7 g, the Liver weight was 1.3 ± 0.1 g and the ALT was 35.7 ± 9.1 U/L. Besides, under “2.5 mg/kg”, the AST was determined as 161.9 ± 96.2 U/L, the TC in liver is reported as 2.9 ± 0.5 mg/g liver and the TG in liver was determined as 48.9 ± 14.1 mg/g liver.
